Results: ChEMBL document CHEMBL1201862, “PubChem BioAssay data set” (2004)
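Dose response: 5 concentrations. Exposure: 48 h. Format: 96-well plates. Endpoint: linear interpolation; highest concentration if not reached. GI50: concentration for 50% inhibition of growth.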 Calls of active or inactive are those of the source. No stated cut-off is given here; in the data, active = GI50 up to about 1.1 µM and inactive = higher.

Assays:
Assay in all cases: inhibition of tumour cell growth, NCI panel, 48 h
[1] = tested on: OVCAR-5
[2] = tested on: SK-OV-3
[3] = tested on: NCI-H23
[4] = tested on: DMS-114
[5] = tested on: HT-29
[6] = tested on: K562
[7] = tested on: OVCAR-8
[8] = tested on: RXF 393
[9] = tested on: DMS-273
[10] = tested on: SK-MEL-28
[11] = tested on: MCF7
[12] = tested on: HOP-18
[13] = tested on: SF-295
[14] = tested on: SN12C
[15] = tested on: Malme-3M
[16] = tested on: COLO 205
[17] = tested on: A498
[18] = tested on: CCRF-CEM
[19] = tested on: NCI/ADR-RES
[20] = tested on: HCT-116
[21] = tested on: NCI-H522
[22] = tested on: CAKI-1
[23] = tested on: SK-MEL-2
[24] = tested on: IGROV-1
[25] = tested on: A549
[26] = tested on: HOP-92
[27] = tested on: SNB-75
[28] = tested on: XF498
[29] = tested on: UACC-62
[30] = tested on: SF-268
[31] = tested on: U-251
[32] = tested on: HOP-62
[33] = tested on: HL-60
[34] = tested on: KM12
[35] = tested on: KM-20L2
[36] = tested on: HCT-15
[37] = tested on: SK-MEL-5
[38] = tested on: LOX IMVI
[39] = tested on: OVCAR-4
[40] = tested on: HCC 2998
[41] = tested on: SF-539
[42] = tested on: UACC-257
[43] = tested on: NCI-H460
[44] = tested on: EKVX
[45] = tested on: DLD-1
[46] = tested on: M19-MEL
[47] = tested on: NCI-H226
[48] = tested on: SNB-78
[49] = tested on: SW-620
[50] = tested on: UO-31
[51] = tested on: SNB-19
[52] = tested on: RPMI-8226
[53] = tested on: MOLT-4
[54] = tested on: OVCAR-3

For `FC(F)(F)C1=NC(=NNc2nnc(-c3ccccc3)c(-c3ccccc3)n2)N=C(C(F)(F)F)C1`, the GI50 [1] was 30.2 µM (inactive), the GI50 [2] was 60.4 µM (inactive) and the GI50 [3] was 19.5 µM (inactive). For the same compound, the GI50 [4] was 6.14 µM (inactive), the GI50 [5] was 16.6 µM (inactive) and the GI50 [6] was 4.11 µM (inactive). For the same compound, the GI50 [7] was 25.8 µM (inactive), the GI50 [8] was 7.57 µM (inactive) and the GI50 [9] was 5.86 µM (inactive). For the same compound, the GI50 [10] was 35.8 µM (inactive), the GI50 [11] was 13.5 µM (inactive) and the GI50 [12] was 50.2 µM (inactive). For the same compound, the GI50 [13] was 8.2 µM (inactive), the GI50 [14] was > 72.9 µM (inactive) and the GI50 [15] was > 100 µM (inactive). The GI50 [16] was 6.08 µM (inactive), the GI50 [17] was 11.6 µM (inactive) and the GI50 [18] was 7.29 µM (inactive). The GI50 [19] was 67.6 µM (inactive), the GI50 [20] was 11.6 µM (inactive) and the GI50 [21] was 9.51 µM (inactive). For the same compound, the GI50 [22] was 27.2 µM (inactive), the GI50 [23] was 24.5 µM (inactive) and the GI50 [24] was 21.5 µM (inactive). For the same compound, the GI50 [25] was 13.3 µM (inactive), the GI50 [26] was 15.8 µM (inactive) and the GI50 [27] was 25.7 µM (inactive). For the same compound, the GI50 [28] was 20 µM (inactive), the GI50 [29] was 3.54 µM (inactive) and the GI50 [30] was 12.8 µM (inactive). The GI50 [31] was > 29 µM (inactive), the GI50 [32] was 13.4 µM (inactive) and the GI50 [33] was 5.22 µM (inactive). The GI50 [34] was 33.2 µM (inactive), the GI50 [35] was 16.8 µM (inactive) and the GI50 [36] was 11 µM. The GI50 [37] was 15.8 µM (inactive), the GI50 [38] was 12.7 µM (inactive) and the GI50 [39] was 13.1 µM (inactive). The GI50 [40] was 9.12 µM (inactive), the GI50 [41] was 32.9 µM (inactive) and the GI50 [42] was 23.9 µM (inactive). The GI50 [43] was 7.71 µM (inactive), the GI50 [44] was 10.2 µM (inactive) and the GI50 [45] was 12.6 µM (inactive). The GI50 [46] was 21.8 µM (inactive), the GI50 [47] was 29.4 µM (inactive) and the GI50 [48] was > 67.9 µM (inactive). For the same compound, the GI50 [49] was 27.3 µM (inactive), the GI50 [50] was 4.11 µM (inactive) and the GI50 [51] was 35 µM (inactive). The GI50 [52] was 12.2 µM (inactive), the GI50 [53] was 5.51 µM (inactive) and the GI50 [54] was > 30.7 µM (inactive).
